These results are taken from patent publication US20100144891A1, “USE OF CYCLOHEXANEHEXOL DERIVATIVES IN THE TREATMENT OF AMYOTROPHIC LATERAL SCLEROSIS” (priority 2007, published 2010).

Entries after “also recorded” stand apart in the source; their conditions may differ. Some results are limits rather than exact numbers.

The test system of one experiment is apoSOD1 and mutant SOD1. The experiment can be described thus: Time course study of ThT signal (kinetics of assembly of SOD1 aggregates). The experiment is classed as biochemical. The settings on record: in the presence of scyllo-inositol. Here is the method:
(§1) Inositol related compounds were screened in aggregation assays of apo-SOD1 and the following SOD1 mutants, […] and […]. The […] mutant was chosen for its fast aggregation kinetics, while the […] is intermediary between […] and the slow kinetics of apo-SOD1 (Stathopulos, P. B., et al. (2006) J. Biol. Chem. 281, 6184-6193). Using trifluoroethanol (TFE)-induced aggregation, all three SOD1 proteins aggregate maximally within a 2 hour window (Stathopulos P B, et al. (2003) Proc Natl Acad Soc USA. 100:7021-7026). […] The results were confirmed using a bis-ANS assay that determines the exposure of hydrophobic faces on proteins, as aggregation occurs dye binding to SOD1 should increase ([…], Cunningham P, et al (2002) J Biol. Chem. 277:47551-46556). In the presence of scyllo-inositol, the bis-ANS signal was lower than when protein was incubated alone.

The subject of experiment [1] is Tg SOD1 G37R mice. The experiment in a line: Rotarod test of motor function in ALS mouse model. The experiment is classed as in vivo. The method, then: (§2) FIG. 2. Motor function of TgSOD1 G37R mice treated or untreated with scyllo-inositol was evaluated using the Rotarod and footprint analyses of gait. […] Stride length 37±2 mm for treated and 18±2 mm for untreated mice (p<0.001). […] Mice were untreated (n=5) or treated with scyllo-inositol (n=5) in drinking water ad libitum from 6.5 months of age and are ongoing at 12 months. Starting at 7.5 months of age, mice underwent weekly evaluation of motor function using the Rotarod test. Mice were given three consecutive trials and the mean time to fall was calculated. […] At 12 months of age, two treated mice were still remaining on the rotarod for >50 sec; untreated mice lost this ability at 11 months of age. […] Scyllo-inositol treatment maintained gait with treated 37±2 versus 18±2 mm stride length in Tg mice (p<0.001).
On the technique in general: The rotarod test checks motor coordination on a turning rod.

Experiment [2] concerns the target Apo-wild type SOD1 protein (Homo sapiens, UniProt P00441). The experiment in a line: Trifluoroethanol-induced aggregation of Apo-wild type SOD1, thioflavin T signal. The experiment is classed as biochemical. The conditions noted are these: SOD1:scyllo-inositol 1:20, 15 minute incubation. The method, then:
as §1, with “FIG. 3. ApoSOD aggregation-Trifluoroethanol-induced aggregation of Apo-wild type SOD1 protein in the presence and absence of scyllo-inositol after a 15 minute incubation. The thioflavin T signal increases in the presence of scyllo-inositol. Untreated (blue) and SOD1:scyllo-inositol ratio of 1:20(yellow). Inositol” for “Inositol”

Experiment [3] addresses T1, SOD1 G93V protein (Homo sapiens, UniProt P00441, G94V). The experiment in a line: bis-ANS assay (exposure of hydrophobic faces on SOD1). The experiment is classed as biochemical. The conditions noted are these: in the presence of scyllo-inositol vs protein incubated alone.
Text: as §1, with “FIG. 1. Aggregation of SOD1 […] protein in the presence and absence of scyllo-inositol. […] Untreated (blue), SOD1:scyllo-inositol ratio of 1:1 (blue), 1:10 (pink) and 1:20(yellow). […] Inositol” for “Inositol”

For experiment [4], the target named is T1, SOD1 G93V protein. The experiment can be described thus: Trifluoroethanol (TFE)-induced SOD1 aggregation, thioflavin T (ThT) fluorescence. The experiment is classed as biochemical. The conditions noted are these: SOD1:scyllo-inositol ratio 1:1, 1:10, 1:20 vs untreated.
Text: as §1, with “FIG. 1. Aggregation of SOD1 […] protein in the presence and absence of scyllo-inositol. […] Untreated (blue), SOD1:scyllo-inositol ratio of 1:1 (blue), 1:10 (pink) and 1:20(yellow). […] Inositol” for “Inositol”

Experiment [5] has as its system Tg SOD1 G37R mice. The experiment can be described thus: Foot print analyses of gait in ALS mouse model. The experiment is classed as in vivo. Here is the method: as §2
The target in the next experiment is apo-SOD1 G93S protein (Homo sapiens, UniProt P00441, G94S). The experiment in a line: Trifluoroethanol-induced aggregation of apo-SOD1 G93S, thioflavin T signal. The experiment is classed as biochemical. The conditions noted are these: SOD1:scyllo-inositol 1:20, as a function of time. An excerpt: FIG. 4. ApoSOD1 G93S mutant aggregation—Trifluoroethanol-induced aggregation of apo-SOD1 G93S protein in the presence and absence of scyllo-inositol as a function of time. […] Untreated (blue) and SOD1:scyllo-inositol ratio of 1:20(yellow).
Sequence of apo-SOD1 G93S protein (P00441 whole entry G94S): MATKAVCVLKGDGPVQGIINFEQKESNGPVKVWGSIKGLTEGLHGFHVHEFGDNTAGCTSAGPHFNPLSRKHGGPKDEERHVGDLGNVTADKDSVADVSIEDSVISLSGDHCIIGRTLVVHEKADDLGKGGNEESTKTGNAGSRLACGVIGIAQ
Inositol related compounds were screened in aggregation assays of apo-SOD1 and the following SOD1 mutants, G93V and G93S. The G93V mutant was chosen for its fast aggregation kinetics, while the G93S is intermediary between G93V and the slow kinetics of apo-SOD1 (Stathopulos, P. B., et al. (2006) J. Biol. Chem. 281, 6184-6193). Using trifluoroethanol (TFE)-induced aggregation, all three SOD1 proteins aggregate maximally within a 2 hour window (Stathopulos P B, et al. (2003) Proc Natl Acad Soc USA. 100:7021-7026). […] The results were confirmed using a bis-ANS assay that determines the exposure of hydrophobic faces on proteins, as aggregation occurs dye binding to SOD1 should increase (Rakhit R, Cunningham P, et al (2002) J Biol. Chem. 277:47551-46556). In the presence of scyllo-inositol, the bis-ANS signal was lower than when protein was incubated alone.

The next experiment has as its system SOD1G93A. The experiment in a line: Negative stain electron microscopy of SOD1 aggregates/fibres. The experiment is classed as biochemical. The conditions noted are these: vs control samples / SOD1 incubated alone.
Experiment [6] has as its system folate-resistant mouse neural tube defects. The settings on record: compared with myo-inositol; cited from earlier work.
Experiment [7] has as its system cytidine monophosphorylphosphatidate. The settings on record: cited from earlier work.

T1 sequence (P00441 whole entry G94V): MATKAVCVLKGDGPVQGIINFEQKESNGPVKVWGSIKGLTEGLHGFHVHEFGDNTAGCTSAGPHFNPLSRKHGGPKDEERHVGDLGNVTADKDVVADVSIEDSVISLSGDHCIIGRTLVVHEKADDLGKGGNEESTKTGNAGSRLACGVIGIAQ
Sequence of Apo-wild type SOD1 protein (P00441 whole entry): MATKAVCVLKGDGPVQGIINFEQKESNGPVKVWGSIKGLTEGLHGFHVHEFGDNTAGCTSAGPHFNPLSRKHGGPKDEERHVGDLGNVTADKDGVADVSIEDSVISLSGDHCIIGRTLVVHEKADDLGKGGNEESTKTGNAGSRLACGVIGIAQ

In the case of `O[C@H]1[C@H](O)[C@@H](O)[C@H](O)[C@@H](O)[C@@H]1O` [scyllo-inositol], the “kinetics of assembly of SOD1 aggregates” value with apoSOD1 and mutant SOD1 is recorded as “greatly reduced; also recorded: most effective compound”. Moreover, in the experiment on Tg SOD1 G37R mice [1] (Tg SOD1 G37R mice, scyllo-inositol in drinking water ad libitum from 6.5 months of age, untreated 10.1±0.06), the onset of disease is given as 10.6±0.22 months. In addition, in the experiment on Tg SOD1 G37R mice [1] (at 12 months of age, two treated mice, untreated mice lost this ability at 11 months), the “time remaining on the rotarod” value was above 50 s. The “motor function on the rotarod (latency to fall)” value with Tg SOD1 G37R mice [1] (treated vs untreated Tg SOD1 G37R mice, p=0.029) is “improvement; also recorded: significantly better”. Also, the “Thioflavin T signal / trifluoroethanol-induced aggregation” value in experiment [2] is reported as “increases”; at apo-SOD1 G93S protein, “increased; also recorded: increases in the presence of scyllo-inositol to a greater extent than in apo-SOD1 G93S protein alone”. For the same compound, the bis-ANS signal result on SOD1 G93V protein [3] is “lower; also recorded: decreases”. In addition, the “Thioflavin T (ThT) fluorescence signal” value on SOD1 G93V protein [4] is “increased; also recorded: increases in a scyllo-inositol concentration dependent manner”. Besides, the stride length in the experiment with Tg SOD1 G37R mice [5] (treated Tg SOD1 G37R mice, untreated 18±2 mm, p<0.001) stood at 37±2 mm. In addition, the “gait (foot print analyses)” value with Tg SOD1 G37R mice [5] (treated versus untreated Tg mice) was “maintained”. For the same compound, in the experiment on SOD1G93A, the “number of SOD1 aggregates/fibres (negative stain electron microscopy)” value was “decreased; also recorded: no fibres were detected”.

As for `OC1C(O)C(O)C(O)C(O)C1O` [D-chiro-inositol], the “prevention of folate-resistant neural tube defects” value in [6] was “more effective than myo-inositol”.

`OC1C(O)C(O)C(O)C(O)C1O` (stereo not drawn) [Epi-inositol, epi-inositol]: the “reversing lithium effects on cytidine monophosphorylphosphatidate” value in experiment [7] is “effective”.
